The target in data set [1] is T1, human cloned 5-HT6 receptors (Homo sapiens, UniProt P50406).
T1 construct: expressed in transfected cells; host or cells: HeLa cells
The data set is described as follows: 5-HT6 binding affinity, [3H]-LSD displacement on membranes of Hela cells expressing human cloned 5-HT6 receptors. Here is the method: The affinity of test compounds for the serotonin 5-HT6 receptor is evaluated in the following manner. Cultured Hela cells expressing human cloned 5-HT6 receptors are harvested and centrifuged at low speed (1,000×g) for 10.0 min to remove the culture media. The harvested cells are suspended in half volume of fresh physiological phosphate buffered saline solution and recentrifuged at the same speed. This operation is repeated. The collected cells are then homogenized in ten volumes of 50 mM Tris.HCl (pH 7.4) and 0.5 mM EDTA. The homogenate is centrifuged at 40,000×g for 30.0 min and the precipitate is collected. The obtained pellet is resuspended in 10 volumes of Tris.HCl buffer and recentrifuged at the same speed. The final pellet is suspended in a small volume of Tris.HCl buffer and the tissue protein content is determined in aliquots of 10-25 μl volumes. Bovine Serum Albumin is used as the standard in the protein determination according to the method described in Lowry et al., J. Biol. Chem., 193:265 (1951). The volume of the suspended cell membranes is adjusted to give a tissue protein concentration of 1.0 mg/ml of suspension. The prepared membrane suspension (10 times concentrated) is aliquoted in 1.0 ml volumes and stored at −70° C. until used in subsequent binding experiments.
The reaction is allowed to proceed in the dark for 120 min at room temperature, at which time, the bound ligand-receptor complex is filtered off on a 96 well unifilter with a Packard Filtermate® 196 Harvester. The bound complex caught on the filter disk is allowed to air dry and the radioactivity is measured in a Packard TopCount® equipped with six photomultiplier detectors, after the addition of 40.0 μl Microscint®-20 scintillant to each shallow well. The unifilter plate is heat-sealed and counted in a PackardTopCount® with a tritium efficiency of 31.0%.
Binding in the presence of varying concentrations of test compound is expressed as a percentage of specific binding in the absence of test compound. The results are plotted as log % bound versus log concentration of test compound. […] A linear regression line of data points is plotted, from which the IC50 value is determined and the Ki value is determined based upon the following equation: Ki=IC50/(1+L/KD) where L is the concentration of the radioactive ligand used and KD is the dissociation constant of the ligand for the receptor, both expressed in nM.

The values below come from US20050065185A1, “Heterocyclylalkoxy-, -alkylthio- and -alkylaminobenzazole derivatives as 5-hydroxytryptamine-6 ligands” (Wyeth, priority 2001, published 2005).

Each structure is given as a SMILES string. Where a name gives a salt, the structure may show the parent alone.

A word on the Ki: it is the dissociation constant of the complex between target and ligand, obtained from inhibition or displacement. Read a high Ki as weaker binding. The melting point is the temperature, or range, at which the solid turns liquid.

T1 sequence (P50406 whole entry): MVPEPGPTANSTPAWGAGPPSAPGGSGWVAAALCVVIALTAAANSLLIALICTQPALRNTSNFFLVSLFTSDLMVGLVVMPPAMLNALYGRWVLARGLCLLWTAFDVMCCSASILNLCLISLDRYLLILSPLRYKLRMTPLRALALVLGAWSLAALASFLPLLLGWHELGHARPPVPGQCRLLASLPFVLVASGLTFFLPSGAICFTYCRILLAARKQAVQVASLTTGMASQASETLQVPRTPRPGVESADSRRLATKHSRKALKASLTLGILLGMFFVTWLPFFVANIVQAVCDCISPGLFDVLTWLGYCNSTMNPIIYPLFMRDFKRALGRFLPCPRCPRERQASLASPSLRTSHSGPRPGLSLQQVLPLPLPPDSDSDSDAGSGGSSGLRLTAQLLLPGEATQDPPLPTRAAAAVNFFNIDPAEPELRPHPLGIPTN

Molecule `O=S(=O)(c1cccc(F)c1)n1ccc2c(OC[C@@H]3CCCN3)cccc21` [Example 6, 1-[(3-fluorophenyl)sulfonyl)-4-[(2S)-pyrrolidin-2-ylmethoxy]-1H-indole] yielded an inhibition constant Ki in data set [1] of 8 nM.
Take `O=S(=O)(c1ccc(Cl)s1)n1ccc2c(OC[C@@H]3CCCN3)cccc21` [Example 4, 1-[(5-chlorothien-2-yl)sulfonyl]-4-[(2S)-pyrrolidin-2-ylmethoxy]-1H-indole]: the affinity in data set [1], expressed as Ki, was 7 nM.
On to `O=S(=O)(c1ccccc1)n1ncc2c(OC[C@@H]3CCCN3)cccc21` [Example 15, 1-(Phenylsulfonyl)-4-[(2S)-pyrrolidin-2-ylmethoxy]-1H-indazole trifluoroacetic acid salt], for which the inhibition constant (Ki) in data set [1] stood at 7 nM.
Molecule `O=S(=O)(c1ccc(F)cc1)n1ccc2c(OC[C@@H]3CCCN3)cccc21` [Example 7, 1-[(4-fluorophenyl)sulfonyl)-4-[(2S)-pyrrolidin-2-ylmethoxy]-1H-indole] displayed a Ki in data set [1] of 31 nM.
For `Nc1ccc(S(=O)(=O)n2ncc3c(OC[C@@H]4CCCN4)cccc32)cc1` (as salt: hydrochloride) [Example 20, 4-({4-[(2S)-pyrrolidin-2-ylmethoxy}-1H-indazol-1-yl}sulfonyl)aniline], the melting point lay in the range of 150 to 155 °C.
Take `O=S(=O)(c1ccc(F)cc1)n1ccc2c(OC[C@@H]3CCCN3)cccc21` (as salt: hydrochloride) [Example 7, 1-[(4-fluorophenyl)sulfonyl)-4-[(2S)-pyrrolidin-2-ylmethoxy]-1H-indole]: the melting point was 258 °C (dec.).
Molecule `O=S(=O)(c1ccccc1F)n1ccc2c(OC[C@@H]3CCCN3)cccc21` [Example 5, 1-[(2-fluorophenyl)sulfonyl)-4-[(2S)-pyrrolidin-2-ylmethoxy]-1H-indole] yielded an inhibition constant (Ki) in data set [1] of 2 nM.
As to `Nc1ccc(S(=O)(=O)n2ncc3c(OC[C@@H]4CCCN4)cccc32)cc1Cl` [Example 21, 2-chloro-4-({4-[(2S)-pyrrolidin-2-ylmethoxy]-1H-indazol-1-yl}sulfonyl)aniline], the Ki in data set [1] turned out to be 16 nM.
In the case of `COc1ccc(S(=O)(=O)n2ccc3c(OC[C@@H]4CCCN4)cccc32)cc1OC` (as salt: hydrochloride) [Example 8, 1-[(3,4-dimethoxyphenyl)sulfonyl)-4-[(2S)-pyrrolidin-2-ylmethoxy]-1H-indole], the melting point was 115 °C (dec.).
The molecule `O=S(=O)(c1cccc(F)c1)n1ccc2c(OC[C@@H]3CCCN3)cccc21` (as salt: hydrochloride) [Example 6, 1-[(3-fluorophenyl)sulfonyl)-4-[(2S)-pyrrolidin-2-ylmethoxy]-1H-indole] yielded a melting point of 160 to 162 °C.
Molecule `COc1ccc(S(=O)(=O)n2ccc3c(OC[C@@H]4CCCN4)cccc32)cc1OC` [Example 8, 1-[(3,4-dimethoxyphenyl)sulfonyl)-4-[(2S)-pyrrolidin-2-ylmethoxy]-1H-indole] returned a Ki in data set [1] of 95 nM.
On to `O=S(=O)(c1ccc(Cl)s1)n1ncc2c(OC[C@@H]3CCCN3)cccc21` (as salt: hydrochloride) [Example 19, 1-[(5-chlorothien-2-yl)sulfonyl]-4-[(2S)-pyrrolidin-2-ylmethoxy]-1H-indazole], for which the melting point worked out at 195 °C.
Regarding `O=S(=O)(c1ccc(Cl)s1)n1ncc2c(OC[C@@H]3CCCN3)cccc21` [Example 19, 1-[(5-chlorothien-2-yl)sulfonyl]-4-[(2S)-pyrrolidin-2-ylmethoxy]-1H-indazole], affinity in data set [1] was put at a Ki of 5 nM.
On to `O=S(=O)(c1ccccc1Cl)n1ncc2c(OC[C@@H]3CCCN3)cccc21` (as salt: hydrochloride) [Example 17, 1-[(2-chlorophenyl)sulfonyl]-4-[(2S)-pyrrolidin-2-ylmethoxy]-1H-indazole], for which the melting point is > 255 °C (dec.).
As to `O=S(=O)(c1ccccc1F)n1ccc2c(OC[C@@H]3CCCN3)cccc21` (as salt: hydrochloride) [Example 5, 1-[(2-fluorophenyl)sulfonyl)-4-[(2S)-pyrrolidin-2-ylmethoxy]-1H-indole], the melting point was in the range of 153 to 155 °C.
In data set [1], `Nc1ccc(S(=O)(=O)n2ncc3c(OC[C@@H]4CCCN4)cccc32)cc1` [Example 20, 4-({4-[(2S)-pyrrolidin-2-ylmethoxy}-1H-indazol-1-yl}sulfonyl)aniline] returned an inhibition constant (Ki) of 9 nM.
On the same count and under the same terms, the value for `O=S(=O)(c1ccccc1)n1ccc2c(OC[C@@H]3CCCN3)cccc21` [Example 3, 1-(Phenylsulfonyl)-4-[(2S)-pyrrolidin-2-ylmethoxy]-1H-indole hydrochloride] was 6 nM.
`Nc1ccc(S(=O)(=O)n2ccc3c(OC[C@@H]4CCCN4)cccc32)cc1` (as salt: hydrochloride) [Example 9]: the melting point was 150 °C (dec.).
With `O=S(=O)(c1ccccc1Cl)n1ncc2c(OC[C@@H]3CCCN3)cccc21` [Example 17, 1-[(2-chlorophenyl)sulfonyl]-4-[(2S)-pyrrolidin-2-ylmethoxy]-1H-indazole], the Ki in data set [1] came out at 5 nM.
Regarding `Nc1ccc(S(=O)(=O)n2ncc3c(OC[C@@H]4CCCN4)cccc32)cc1Cl` (as salt: hydrochloride) [Example 21, 2-chloro-4-({4-[(2S)-pyrrolidin-2-ylmethoxy]-1H-indazol-1-yl}sulfonyl)aniline], the melting point is 220 °C (dec.).
Regarding `O=S(=O)(c1ccccc1F)n1ncc2c(OC[C@@H]3CCCN3)cccc21` [Example 18, 1-[(2-fluorophenyl)sulfonyl]-4-[(2S)-pyrrolidin-2-ylmethoxy]-1H-indazole], affinity in data set [1] was put at a Ki of 8 nM. That is a single-digit nanomolar value.
In data set [1], `O=S(=O)(c1ccccc1)n1ccc2c(OC[C@H]3CCCN3)cccc21` [Example 11, 1-(Phenylsulfonyl)-4-[(2R)-]pyrrolidin-2-ylmethoxy]-1H-indole hydrochloride] returned a Ki of 106 nM.
On to `O=S(=O)(c1cccc2cccnc12)n1ncc2c(OC[C@@H]3CCCN3)cccc21` [Example 16, 8-({4-[(2S)-pyrrolidin-2-ylmethoxy]-1H-indazol-1-yl}sulfonyl)quinoline], for which the melting point fell in the range of 217 to 218 °C. The molecule also registered a Ki in data set [1] of 85 nM.
In data set [1], `Nc1ccc(S(=O)(=O)n2ccc3c(OC[C@@H]4CCCN4)cccc32)cc1` [Example 9] showed a Ki of 1 nM. This lies in the single-digit nanomolar range.
`O=S(=O)(c1ccc(Cl)s1)n1ccc2c(OC[C@@H]3CCCN3)cccc21` (as salt: hydrochloride) [Example 4, 1-[(5-chlorothien-2-yl)sulfonyl]-4-[(2S)-pyrrolidin-2-ylmethoxy]-1H-indole]: the melting point is 204 to 206 °C.
The same measure, in the same setting: the value for `O=S(=O)(c1ccccc1F)n1ncc2c(OC[C@@H]3CCCN3)cccc21` (as salt: hydrochloride) [Example 18, 1-[(2-fluorophenyl)sulfonyl]-4-[(2S)-pyrrolidin-2-ylmethoxy]-1H-indazole] was 145 to 148 °C.
